For test [1], the system named is lipoproteins of human serum. The test can be described thus: incubation of human serum with exogenous apoC-II-a. It is filed as binding. Conditions: doses comparable to that achieved in vivo in mice.
Test [2] deals with obese monkeys with a plasma TG level of greater than 2 mmol/L. The test is described as follows: in vivo studies in the obese monkey model. The protocol: Monkeys with a TG level greater than 2 mmol/L were selected, trained and assigned into 3 groups (control, 1 mg/kg Delta6PV, and 5 mg/kg Delta6PV). The desired dose was injected intravenously into the animals at 0 h time point. The monkeys were monitored over the course of 72 hours and blood samples at different time points were collected for biomarker analysis.

Turning to “DWLKAFYDKVAEKLKEAFPAMSTYTGIFTDQVLSVLKGEE (listed as Homo sapiens) [apoC-II-a, excluded from the claimed peptides]”, in test [1], the “binding to lipoproteins and apolipoprotein displacement” value was “binds to all lipoproteins, including HDL and causes the displacement of apoC-I and apoC-III”.

With “DYLKEVFEKLRDLYEKFTPAVSTYTGIFTDQVLSVLKGEE [Delta6PV]”, the “dose dependence of effect” value in test [2] (1 and 5 mg/kg intravenous) is listed as “dose-dependent”. In test [2] (FIG. 48A), the VLDL level result was “marked reduction of the VLDL level”. In addition, the LDL level entry in test [2] (FIG. 48B) is on record as “did not change significantly”. Also, the HDL level result in test [2] (FIG. 48C) is “did not change significantly”. The “plasma TG level” value in test [2] (single intravenous injection, 1 and 5 mg/kg, 24 h, 48 h, and 72 h after the injection) is recorded as “significant reduction of plasma TG level”.

Values taken from patent US11827690B2, “ApoC-II mimetic peptides” (THE UNITED STATES OF AMERICA, as represented by the …, priority 2017, dated 2023).
